Entries after “also recorded” stand apart in the source; their conditions may differ.
How the values were obtained:
[1] = tested on: p16^INK4a; assay: Imiquimod-induced skin senescence in p16^LUC mice, bioluminescence imaging; assay type: in vivo, SKH1 hairless p16^LUC mice
Excerpt: In order to study the effects of NAD^+ agonists on cellular senescence associated with the skin, which is associated with inflammation, senescence was induced in a luciferase knockin (p16^LUC) mouse (Burd et al. (2013) Cell 152: 340-351) using topical application of Imiquimod. Imiquimod (IMQ) is an immune modulator topically applied for skin conditions such as melanoma and genital warts. The side effect of IMQ is severe, painful inflammation and aging of the skin.
P16^LUC mice contain the firefly luciferase cDNA inserted into the translational start site of the endogenous p16^INK4a gene. Conditions which induce expression of the p16^INK4a gene, and therefore induce cellular senescence, also induce expression of firefly luciferase in p16^LUC mice (Burd et al. […] Cell 152:340-351; Sorrentino et al. (2014) The Journal of Clinical Investigation, 124(1): 169-351).
The following formulations were prepared: • 1. Cream carrier (containing no IMQ) (control or ctrl); • 2. IMQ cream (containing 5% IMQ) mixed with 10% water (IMQ); and • 3. IMQ cream (containing 5% IMQ) mixed with […] NMN (equating to 5% NMN) (IMQ+NMN).
Each of 1, 2 and 3 were applied daily to the rump of SKH1 hairless p16^LUC mice for 4 days. The animals were subjected to bioluminescence imaging as a readout for senescence. Areas of fluorescence are indicated as darkened areas in FIG. 4.

[2] = Blood glucose and free water (echoMRI) in dexamethasone treated rats; assay type: in vivo, Sprague-Dawley rats; settings: one day after injection
Procedure: To study the effects of NAD^+ agonists on senescence associated with treatment with corticoids, 250 g Sprague-Dawley rats were administered daily intraperitoneal injections of the following formulations for 3 days: • 1. Vehicle: saline • 2. Dexamethasone: 0.8 mg/kg of animal dexamethasone sodium phosphate • 3. Dexamethasone+NMN: 0.8 mg/kg body weight dexamethasone sodium phosphate and 1.5 g/kg body weight NMN.
After 3 days, blood glucose was determined.
Free water was assessed by echMRI one day after injection of the above formulations.

[3] = tested on: C2C12 myoblasts; assay: SA-β-Gal activity in C2C12 myoblasts by flow cytometry with C12FDG; assay type: cell-based
Procedure: To determine the ability of NAD^+ agonists to prevent or reduce senescence associated with treatment with corticoids, C2C12 myoblasts were assayed for SA-β-Gal activity following contact with vehicle, NMN, apigenin, dexamethasone, dexamethasone and NMN, and dexamethasone and apigenin. SA-β-Gal activity was determined using the fluorogenic substrate, C12FDG, by flow cytometry (protocol of Debacq-Chainiaux et al. Nature Protocols 2009). FIG. 7A: […] FIGS. 7B and 7C: […] SA-β-Gal activity was decreased with NMN and/or apigenin. All data are presented as the mean value. * p<0.05, **** p<0.0001, using two-way ANOVA multiple comparisons test.

[4] = tested on: 3T3-L1 adipocytes; assay: SA-β-gal chromogenic staining of dexamethasone treated 3T3-L1 adipocytes; assay type: cell-based; settings: 5 days; dexamethasone 1, 0.5, 0.1 or 0.01 mg/ml; 1 mM NMN, 25 mM apigenin
Procedure: To further investigate the effects of NAD^+ agonists on dexamethasone induced senescence, 3T3-L1 adipocytes were treated for 5 days with ethanol (control), or 1 mg/ml, 0.5 mg/ml, 0.1 mg/ml or 0.01 mg/ml of dexamethasone in combination with either DMSA, 1 mM NMN, 25 mM apigenin, or 1 mM NMN and 25 mM apigenin and subjected to senescence associated beta-galactosidase staining according to the chromogenic protocol of Debacq-Chainiaux F et al Nature Protocols 2009.

[5] = tested on: 3T3-L1 adipocytes; assay: Intracellular lipid content (oil red o) of 3T3-L1 adipocytes treated with antiretroviral agents; settings: for intracellular lipid content (oil red o, absorbance at 544 nm): 24 hr
Procedure: The ability of NAD^+ agonists to reduce or prevent lipodystrophy associated with anti-retroviral compounds was assessed. The ability of NMN to prevent or reduce lipodystrophy was tested by determining the lipid content of 3T3-L1 adipocytes treated with a vehicle, or the antiretroviral agent stavudine, either alone or in combination with NMN.
3T3-L1 adipocytes were treated for 24 hr with the HIV antiretroviral compound stavudine (10 nM) in the presence or absence of NMN (1 mM). Intracellular lipid content was assessed using oil red o staining, which was quantified by reading absorbance at 544 nm. Error bars: SD.
In order to further test the ability of NAD^+ agonists to reduce lipodystrophy associated with antiretroviral agents, 3T3-L1 adipocytes were treated for 24 hr with various antiretroviral compounds (30 μM) in the presence or absence of NMN (1 mM) or apigenin (25 μM). Intracellular lipid content was assessed using oil red o staining, which was quantified by reading absorbance at 544 nm.

[6] = tested on: C2C12 myoblasts; assay: SA-β-Gal staining of C2C12 myoblasts incubated with various agents; assay type: cell-based
Procedure: The ability of NAD^+ agonists to reduce senescence associated with various agents was tested by inclubating C2C12 myoblasts with various agents in the presence or absence of NMN or apigenin, and the cells subsequent stained as mentioned above for SA-β-Gal activity. The following agents were tested: [table]

[7] = tested on: p16^INK4A; assay: Doxorubicin-induced senescence in p16^LUC mice, bioluminescence/CT imaging; assay type: in vivo; settings: doxorubicin alone 1 mg/kg i.p.; imaging 24 hours after treatment
Procedure: Vehicle control: 10% DMSO in PBS administered intraperitoneally; • 2. Apigenin: administered in diet at 500 mg/kg of food in addition to vehicle control administered i.p.; • 3. […] Apigenin administered in chow diet at 500 mg/kg of food, and doxorubicin administered at 1 mg/kg body weight i.p. Apigenin was administered 4 days prior to administration of doxorubicin. The animals were subjected to bioluminescence/CT imaging (Spectrum-CT instrument, PerkinElmer) as a readout for senescence 24 hours after treatment was completed. Areas of luminescence are shown as lightened areas in FIG. 5 and are indicated by an arrow.

[8] = Body weight after doxorubicin; assay type: in vivo, male C57BL6 mice; settings: doxorubicin 10 mg/kg i.p. single dose at day 8
Procedure: Vehicle control: 10% DMSO in PBS administered intraperitoneally; • 2. Apigenin: administered in diet at 500 mg/kg of diet, in addition to vehicle control administered i.p.; • 3. […] Apigenin administered in diet of 500 mg/kg of diet, and doxorubicin administered at 10 mg/kg body weight i.p. Apigenin was administered 8 days prior to administration of a single dose of doxorubicin. Body weight was assessed during the course of the experiment as a read-out of general health and malaise, the results of which are shown in FIG. 11.

[9] = target: T1, CD38 (Homo sapiens, UniProt P28907); settings: in vitro; Esande et al. (2013) Diabetes; cited from earlier work
T1 sequence (P28907 1-300): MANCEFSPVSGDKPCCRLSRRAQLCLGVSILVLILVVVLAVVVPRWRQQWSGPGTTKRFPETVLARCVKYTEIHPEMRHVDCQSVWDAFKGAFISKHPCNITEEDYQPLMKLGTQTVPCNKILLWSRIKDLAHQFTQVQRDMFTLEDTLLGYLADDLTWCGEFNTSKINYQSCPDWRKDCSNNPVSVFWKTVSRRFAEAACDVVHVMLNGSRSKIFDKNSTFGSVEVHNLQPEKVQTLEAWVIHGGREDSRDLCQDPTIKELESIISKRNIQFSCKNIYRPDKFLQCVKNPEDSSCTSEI

CC(C)Cn1cnc2c(N)nc3ccccc3c21 [IMQ, Imiquimod, reference compound]
p16^IN14a induction (bioluminescence) ([1]; IMQ cream (5% IMQ) alone, applied daily to rump for 4 days): showed areas of p16^IN14a induction

NC(=O)c1ccc[n+]([C@@H]2O[C@H](COP(=O)([O-])O)[C@@H](O)[C@H]2O)c1 [NMN, nicotinamide mononucleotide]
free water (echoMRI) ([2]; dexamethasone sodium phosphate 0.8 mg/kg plus NMN 1.5 g/kg i.p., vs dexamethasone): reversed this effect
SA-β-Gal activity (FIG. 7A) ([3]; 48 hours, NMN 1 mM, both ethanol vehicle and dexamethasone (0.1 μg/ml) treated groups): significantly reduced SA-β-Gal activity
SA-β-Gal activity (FIG. 7B) ([3]; 72 hours, dexamethasone sodium phosphate 250 nM or PBS, NMN 1 mM or apigenin 25 uM): decreased
SA-β-Gal activity (FIG. 7C) ([3]; 96 hours, dexamethasone sodium phosphate 250 nM or PBS, NMN 1 mM or apigenin 25 uM): decreased
percentage of cells which exhibited SA-β-Gal activity following treatment with dexamethasone ([3]; summary of FIGS. 7A-7C): reduced the percentage of cells which exhibited SA-β-Gal activity
SA-β-gal staining (blue cells), dexamethasone induced senescence [4]: reduced SA-β-gal staining; also recorded: reduce or prevent senescence induced by dexamethasone
lipodystrophy (intracellular lipid content, oil red o) ([5]; NMN 1 mM, cells treated 24 hr with 30 μM AZT, 3TC, stavudine, Efavirenz, Lopinavir, Ritonavir, Tipranavir): reduced lipodystrophy
intracellular lipid content (oil red o, absorbance at 544 nm) ([5]; stavudine 10 nM and NMN 1 mM, vs NMN and vehicle): no reduction in lipid content
erythema, scaling and redness of skin ([1]; IMQ and NMN topical vs IMQ): less erythema, scaling and redness
p16^IN14a induction (bioluminescence) ([1]; IMQ cream (5% IMQ) mixed with NMN (5% NMN), topical daily for 4 days, vs IMQ): little or no signs of p16^IN14a induction
extent of senescence (proportion of cells stained blue, SA-β-Gal activity) ([6]; agents of the table of b212 with vs without apigenin or NMN): reduce the extent of senescence induced by the agents tested
extent to which the cells undergo senescence ([6]; co-administration with AZT, 3TC, zalcitabine, efavirenze, lopinavir, ritonavir, nevirapine, tipranavir, tenofovir, invirase vs agent alone): reduces the extent to which the cells undergo senescence
extent to which the cells undergo senescence ([6]; co-administration with PPARγ agonist rosiglitazone vs rosiglitazone alone): reduces the extent to which the cells undergo senescence
extent to which the cells undergo senescence ([6]; co-administration with antiprotozoal agent quinacrine vs quinacrine alone): reduces the extent to which the cells undergo senescence
extent to which the cells undergo senescence ([6]; co-administration with each of the chemotherapeutic agents listed in b109 vs agent alone): reduces the extent to which the cells undergo senescence
extent to which the cells undergo senescence ([6]; co-administration with xanthine oxidase inhibitor allopurinol vs allopurinol alone): reduces the extent to which the cells undergo senescence
extent to which the cells undergo senescence ([6]; co-administration with zolendronate vs zolendronate alone): reduces the extent to which the cells undergo senescence

COc1cccc2c1C(=O)c1c(O)c3c(c(O)c1C2=O)C[C@@](O)(C(=O)CO)C[C@@H]3O[C@H]1C[C@H](N)[C@H](O)[C@H](C)O1 [doxorubicin, reference compound]
p16^INK4A induction (bioluminescence) [7]: large areas of bioluminescence
body weight [8]: permanent loss of body weight for at least 40 days

O=c1c(O)c(-c2ccc(O)c(O)c2)oc2cc(O)cc(O)c12 [quercetin, 2-(3,4-dihydroxyphenyl)-3,5,7-trihydroxy-4H-chromen-4-one, reference compound]
inhibition of CD38 activity [9]: inhibitors of CD38 activity in vitro

C[C@@H]1C[C@H]2[C@@H]3CCC4=CC(=O)C=C[C@]4(C)[C@@]3(F)[C@@H](O)C[C@]2(C)[C@@]1(O)C(=O)CO [dexamethasone, reference compound]
free water (echoMRI) ([2]; dexamethasone sodium phosphate 0.8 mg/kg i.p.): significantly reduced the amount of free water

Cc1cn([C@H]2C=C[C@@H](CO)O2)c(=O)[nH]c1=O [stavudine, 2′,3′-didehydro-2′,3′-dideoxythymidine, reference compound]
intracellular lipid content (oil red o, absorbance at 544 nm) ([5]; stavudine 10 nM alone, vs vehicle): reduction in lipid content
